Measured values as given in patent US8716266B2, “Use of PKC-iota inhibitors for the treatment of glioma” (University of South Florida, priority 2011, dated 2014).

Assays:
[1] = Body weight and survival of xenografted mice under ICA-1 treatment
Protocol: Briefly, nine female athymic nude mice, weighing 17 to 23 grams, were divided into 3 groups: Group 1, mice received human glioblastoma xenografts and were treated with saline controls (n=3); Group 2, mice received human glioblastoma xenografts and were treated with ICA-1 (80 mg/kg/day; 20 μM) immediately after glioma implantation (n=3); Group 3, mice received human glioblastoma xenografts and were treated with ICA-1 (80 mg/kg/day, 20 μM) when the tumor reached 100 mm^3 on day 5 post implantation (n=3).
Human glioblastoma cell line U-87 MG, a commonly-studied human grade IV glioblastoma-astrocytoma, epithelial-like cell line, was injected subcutaneously into right flank (1×10^6 cells/flank in 0.1 ml PBS) of the mice. The cell injection site was marked. After glioblastoma implantation, ICA-1 (80 mg/kg/day; 20 μM) was subcutaneously injected, daily, into and around the tumor/cell injection area of Groups 2 and 3 mice; Group 1 mice was treated with vehicle. Tumor volume was calculated using the following formula: length×width×width×½.

[2] = test system: Human glioblastoma cell line U-87 MG; test: Human glioblastoma U-87 MG subcutaneous xenograft in athymic nude mice, tumor volume; assay type: in vivo, female athymic nude mice
Source text: The cell injection site was marked.

[3] = Group 2: ICA-1 80 mg/kg/day daily from implantation

NC(=O)c1ncn(C2CC(COP(=O)(O)O)C(O)C2O)c1N (stereo not drawn) [ICA-1, 1H-imidazole-4-carboxamide, 5-amino-1-[2,3-dihydroxy-4-[(phosphonooxy)methyl]cyclopentyl]-[1R-(1α, 2β, 3β, 4α)]]
body weight [1, 3]: lost significant weight
survival / lethality [1, 3]: died seven days post ICA-1 treatment
body weight ([1]; Group 3: ICA-1 80 mg/kg/day for 4 days (day 5-day 9 post implantation)): did not exhibit significant weight loss
tumor growth ([2]; Group 2: ICA-1 80 mg/kg/day (20 μM) s.c. daily into and around tumor area, started immediately after glioma implantation): prevented tumor growth
tumor growth ([2]; Group 3: ICA-1 80 mg/kg/day (20 μM) s.c. daily, started when tumor reached 100 mm^3 on day 5 post implantation): prevented tumor growth
glioma volume ([2]; Group 3: ICA-1 80 mg/kg/day, 4 days of treatment (day 5-day 9 post implantation)): reduced glioma volume
glioma size after the ICA-1 treatment was terminated ([2]; Group 3: after termination of treatment on day 9 post implantation): continued to reduce
glioma size relative to that of the control mice ([2]; Group 3: end of study period, 8 days after termination of ICA-1 treatment (80 mg/kg/day, day 5-day 9)): 53%
